Source: ChEMBL document CHEMBL4346757, “Synthesis and biological evaluation of 7-methoxy-1-(3,4,5-trimethoxyphenyl)-4,5-dihydro-2H-benzo[e]indazoles as new colchicine site inhibitors” (Bioorg Med Chem Lett, 2019)

Columns and labels:
Assay type in all cases: functional
[1] = system: SNB-75; test: Growth inhibition of human SNB75 cells assessed as cell growth at 100 uM after 48 hrs by SRB assay relative to control; conditions: SNB-75, 48 h, read-out: Activity
[2] = system: RPMI-8226; test: Growth inhibition of human RPMI8226 cells assessed as cell growth at 100 uM after 48 hrs by SRB assay relative to control; conditions: RPMI-8226, 48 h, read-out: Activity
[3] = system: IGROV-1; test: Growth inhibition of human IGROV1 cells assessed as cell growth at 1 uM after 48 hrs by SRB assay relative to control; conditions: IGROV-1, 48 h, read-out: Activity
[4] = system: NCI-H322M; test: Growth inhibition of human NCI-H322M cells assessed as cell growth at 1 uM after 48 hrs by SRB assay relative to control; conditions: read-out: Activity
[5] = system: 786-0; test: Growth inhibition of human 786-0 cells assessed as cell growth at 0.01 uM after 48 hrs by SRB assay relative to control; conditions: 786-0, 48 h, read-out: Activity
[6] = system: A498; test: Growth inhibition of human A498 cells assessed as cell growth at 0.01 uM after 48 hrs by SRB assay relative to control; conditions: A498, 48 h, read-out: Activity
[7] = system: SK-MEL-5; test: Cytotoxicity against human SK-MEL-5 cells assessed as growth inhibition after 48 hrs by SRB assay; conditions: SK-MEL-5, 48 h
[8] = system: NCI-H322M; test: Growth inhibition of human NCI-H322M cells assessed as cell growth at 10 uM after 48 hrs by SRB assay relative to control; conditions: read-out: Activity
[9] = system: MOLT-4; test: Growth inhibition of human MOLT4 cells assessed as cell growth at 10 uM after 48 hrs by SRB assay relative to control; conditions: MOLT-4, 48 h, read-out: Activity
[10] = system: MDA-MB-435; test: Growth inhibition of human MDA-MB-435 cells assessed as cell growth at 10 uM after 48 hrs by SRB assay relative to control; conditions: MDA-MB-435, 48 h, read-out: Activity
[11] = system: MCF7; test: Growth inhibition of human MCF7 cells assessed as cell growth at 0.1 uM after 48 hrs by SRB assay relative to control; conditions: MCF7, 48 h, read-out: Activity
[12] = system: SK-MEL-5; test: Growth inhibition of human SK-MEL-5 cells assessed as cell growth at 0.1 uM after 48 hrs by SRB assay relative to control; conditions: SK-MEL-5, 48 h, read-out: Activity
[13] = system: A549; test: Growth inhibition of human A549/ATCC cells assessed as cell growth at 0.1 uM after 48 hrs by SRB assay relative to control; conditions: A549, 48 h, read-out: Activity
[14] = system: PC-3; test: Growth inhibition of human PC3 cells assessed as cell growth at 1 uM after 48 hrs by SRB assay relative to control; conditions: PC-3, 48 h, read-out: Activity
[15] = system: OVCAR-4; test: Cytotoxicity against human OVCAR4 cells assessed as growth inhibition after 48 hrs by SRB assay; conditions: OVCAR-4, 48 h
[16] = system: UO-31; test: Growth inhibition of human UO31 cells assessed as cell growth at 0.01 uM after 48 hrs by SRB assay relative to control; conditions: UO-31, 48 h, read-out: Activity
[17] = system: RPMI-8226; test: Growth inhibition of human RPMI8226 cells assessed as cell growth at 1 uM after 48 hrs by SRB assay relative to control; conditions: RPMI-8226, 48 h, read-out: Activity
[18] = system: SR; test: Cytotoxicity against human SR cells assessed as growth inhibition after 48 hrs by SRB assay
[19] = system: Hs-578T; test: Cytotoxicity against human Hs 578T cells assessed as growth inhibition after 48 hrs by SRB assay
[20] = system: CAKI-1; test: Cytotoxicity against human Caki1 cells assessed as growth inhibition after 48 hrs by SRB assay; conditions: CAKI-1, 48 h
[21] = system: KM12; test: Cytotoxicity against human KM12 cells assessed as growth inhibition after 48 hrs by SRB assay; conditions: KM12, 48 h
[22] = system: SF-295; test: Growth inhibition of human SF295 cells assessed as cell growth at 0.01 uM after 48 hrs by SRB assay relative to control; conditions: SF-295, 48 h, read-out: Activity
[23] = system: SNB-75; test: Growth inhibition of human SNB75 cells assessed as cell growth at 1 uM after 48 hrs by SRB assay relative to control; conditions: SNB-75, 48 h, read-out: Activity
[24] = system: PC-3; test: Growth inhibition of human PC3 cells assessed as cell growth at 0.1 uM after 48 hrs by SRB assay relative to control; conditions: PC-3, 48 h, read-out: Activity
[25] = system: SNB-75; test: Growth inhibition of human SNB75 cells assessed as cell growth at 0.1 uM after 48 hrs by SRB assay relative to control; conditions: SNB-75, 48 h, read-out: Activity
[26] = system: SF-295; test: Growth inhibition of human SF295 cells assessed as cell growth at 10 uM after 48 hrs by SRB assay relative to control; conditions: SF-295, 48 h, read-out: Activity
[27] = system: OVCAR-3; test: Growth inhibition of human OVCAR3 cells assessed as cell growth at 1 uM after 48 hrs by SRB assay relative to control; conditions: OVCAR-3, 48 h, read-out: Activity
[28] = system: HCT-116; test: Cytotoxicity against human HCT116 cells assessed as growth inhibition after 48 hrs by SRB assay; conditions: HCT-116, 48 h
[29] = system: CCRF-CEM; test: Growth inhibition of human CCRF-CEM cells assessed as cell growth at 0.01 uM after 48 hrs by SRB assay relative to control; conditions: read-out: Activity
[30] = system: UACC-62; test: Growth inhibition of human UACC62 cells assessed as cell growth at 10 uM after 48 hrs by SRB assay relative to control; conditions: UACC-62, 48 h, read-out: Activity
[31] = system: A498; test: Growth inhibition of human A498 cells assessed as cell growth at 10 uM after 48 hrs by SRB assay relative to control; conditions: A498, 48 h, read-out: Activity
[32] = read-out: LC50 (the source's name)
[33] = read-out: pLC50 (the source's name) (converted)

Molecule `COc1ccc2c(c1)CCc1n[nH]c(-c3cc(OC)c(OC)c(OC)c3)c1-2` has a growth at 100 µM [1] of -30%, a growth at 100 µM [2] of 15% and a growth at 1 µM [3] of 26%. It also gave a growth at 1 µM [4] of 42%, a growth at 0.01 µM [5] of 24% and a growth at 0.01 µM [6] of -11%. It also gave a GI50 ([7]; read-out: GI50) of under 0.01 µM, a CC50 [7, 32] of 24.2 µM and a TGI ([7]; read-out: TGI) of under 0.01 µM. For the same molecule, the GI50 ([7]; read-out: pGI50 (converted)) was under 0.01 µM, the CC50 [7, 33] was 24 µM and the TGI ([7]; read-out: pTGI) was under 0.01 µM. For the same molecule, the growth at 10 µM [8] was 31%, the growth at 10 µM [9] was 31% and the growth at 10 µM [10] was -38%. The growth at 0.1 µM [11] was 14%, the growth at 0.1 µM [12] was -26% and the growth at 0.1 µM [13] was 11%. It also gave a growth at 1 µM [14] of 18%, a GI50 ([15]; read-out: GI50) of under 0.01 µM and an LC50 ([15]; read-out: LC50) of over 100 µM. For the same molecule, the TGI ([15]; read-out: TGI) was 56.5 µM, the GI50 ([15]; read-out: pGI50 (converted)) was under 0.01 µM and the LC50 ([15]; read-out: pLC50 (converted)) was over 100 µM. It also gave a TGI ([15]; read-out: pTGI (converted)) of 56.2 µM, a growth at 0.01 µM [16] of 42% and a growth at 1 µM [17] of 52%. It also gave a GI50 ([18]; read-out: GI50) of under 0.01 µM, a CC50 [18, 32] of over 100 µM and a TGI ([18]; read-out: TGI) of 22.9 µM. For the same molecule, the GI50 ([18]; read-out: pGI50 (converted)) was under 0.01 µM, the CC50 [18, 33] was over 100 µM and the TGI ([18]; read-out: pTGI (converted)) was 22.9 µM. It also gave a GI50 ([19]; read-out: GI50) of under 0.01 µM, an LC50 ([19]; read-out: LC50) of over 100 µM and a TGI ([19]; read-out: TGI) of 22.3 µM. The GI50 ([19]; read-out: pGI50 (converted)) was under 0.01 µM, the LC50 ([19]; read-out: pLC50 (converted)) was over 100 µM and the TGI ([19]; read-out: pTGI (converted)) was 22.4 µM. For the same molecule, the GI50 ([20]; read-out: GI50) was under 0.01 µM, the LC50 (concentration killing 50% of cells) ([20]; read-out: LC50) was over 100 µM and the TGI ([20]; read-out: TGI) was 24.8 µM. It also gave a GI50 ([20]; read-out: pGI50 (converted)) of under 0.01 µM, an LC50 (concentration killing 50% of cells) ([20]; read-out: pLC50 (converted)) of over 100 µM and a TGI ([20]; read-out: pTGI (converted)) of 24.5 µM. The GI50 ([21]; read-out: GI50) was under 0.01 µM, the CC50 [21, 32] was 46.5 µM and the TGI ([21]; read-out: TGI) was 11.8 µM. For the same molecule, the GI50 ([21]; read-out: pGI50 (converted)) was under 0.01 µM, the CC50 [21, 33] was 46.8 µM and the TGI ([21]; read-out: pTGI (converted)) was 11.7 µM. It also gave a growth at 0.01 µM [22] of 3%, a growth at 1 µM [23] of 39% and a growth at 0.1 µM [24] of 19%. The growth at 0.1 µM [25] was 31%, the growth at 10 µM [26] was -5% and the growth at 1 µM [27] was 17%. It also gave a GI50 ([28]; read-out: GI50) of under 0.01 µM, a CC50 [28, 32] of 48.9 µM and a TGI ([28]; read-out: TGI) of 1.16 µM. It also gave a GI50 ([28]; read-out: pGI50 (converted)) of under 0.01 µM, a CC50 [28, 33] of 49 µM and a TGI ([28]; read-out: pTGI (converted)) of 1.15 µM. For the same molecule, the growth at 0.01 µM [29] was 38%, the growth at 10 µM [30] was 10% and the growth at 10 µM [31] was -17%.
